Data: US10040781B2, “Tank-binding kinase inhibitor compounds” (Gilead Sciences, Inc., priority 2014, dated 2018)

How the values were obtained:
IKKε = IKKε (Homo sapiens (Human), UniProt Q14164); assay: IKKε TR-FRET enzymatic assay; format: biochemical; details: read-out: IKKe IC50
hJAK2 = hJAK2 (Homo sapiens (Human), UniProt O60674); assay: hJAK2 LANCE TR-FRET enzymatic assay; format: biochemical; details: read-out: JAK2 IC50
TBK1 = TBK1 (Homo sapiens (Human), UniProt Q9UHD2); assay: TBK1 TR-FRET enzymatic assay;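 note: phosphorylation of a biotinylated Ser/Thr peptide by purified full-length recombinant TBK1, read by TR-FRET after 240 min at 25 °C, IC50 is the geometric mean of at least four runs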
TBK1, sequence (Q9UHD2 whole entry): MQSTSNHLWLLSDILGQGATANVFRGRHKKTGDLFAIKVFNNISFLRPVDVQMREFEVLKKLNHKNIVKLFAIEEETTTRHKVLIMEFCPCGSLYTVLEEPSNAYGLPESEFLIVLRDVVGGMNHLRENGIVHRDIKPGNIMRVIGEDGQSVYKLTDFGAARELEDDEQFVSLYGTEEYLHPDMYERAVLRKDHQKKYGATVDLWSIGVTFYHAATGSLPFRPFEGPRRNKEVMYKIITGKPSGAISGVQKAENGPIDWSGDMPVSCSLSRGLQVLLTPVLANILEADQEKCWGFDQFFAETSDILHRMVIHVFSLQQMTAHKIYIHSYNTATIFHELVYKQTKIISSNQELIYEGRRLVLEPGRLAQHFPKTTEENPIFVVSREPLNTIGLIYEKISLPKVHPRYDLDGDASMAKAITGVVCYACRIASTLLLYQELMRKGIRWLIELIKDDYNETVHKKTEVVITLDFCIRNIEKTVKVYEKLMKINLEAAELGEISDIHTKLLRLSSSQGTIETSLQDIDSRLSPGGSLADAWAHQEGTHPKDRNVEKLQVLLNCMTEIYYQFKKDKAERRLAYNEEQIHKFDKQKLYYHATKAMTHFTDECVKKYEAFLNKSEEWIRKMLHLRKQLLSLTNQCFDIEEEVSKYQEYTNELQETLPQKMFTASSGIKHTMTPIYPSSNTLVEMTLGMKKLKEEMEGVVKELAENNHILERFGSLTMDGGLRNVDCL

hJAK2, sequence (O60674 whole entry): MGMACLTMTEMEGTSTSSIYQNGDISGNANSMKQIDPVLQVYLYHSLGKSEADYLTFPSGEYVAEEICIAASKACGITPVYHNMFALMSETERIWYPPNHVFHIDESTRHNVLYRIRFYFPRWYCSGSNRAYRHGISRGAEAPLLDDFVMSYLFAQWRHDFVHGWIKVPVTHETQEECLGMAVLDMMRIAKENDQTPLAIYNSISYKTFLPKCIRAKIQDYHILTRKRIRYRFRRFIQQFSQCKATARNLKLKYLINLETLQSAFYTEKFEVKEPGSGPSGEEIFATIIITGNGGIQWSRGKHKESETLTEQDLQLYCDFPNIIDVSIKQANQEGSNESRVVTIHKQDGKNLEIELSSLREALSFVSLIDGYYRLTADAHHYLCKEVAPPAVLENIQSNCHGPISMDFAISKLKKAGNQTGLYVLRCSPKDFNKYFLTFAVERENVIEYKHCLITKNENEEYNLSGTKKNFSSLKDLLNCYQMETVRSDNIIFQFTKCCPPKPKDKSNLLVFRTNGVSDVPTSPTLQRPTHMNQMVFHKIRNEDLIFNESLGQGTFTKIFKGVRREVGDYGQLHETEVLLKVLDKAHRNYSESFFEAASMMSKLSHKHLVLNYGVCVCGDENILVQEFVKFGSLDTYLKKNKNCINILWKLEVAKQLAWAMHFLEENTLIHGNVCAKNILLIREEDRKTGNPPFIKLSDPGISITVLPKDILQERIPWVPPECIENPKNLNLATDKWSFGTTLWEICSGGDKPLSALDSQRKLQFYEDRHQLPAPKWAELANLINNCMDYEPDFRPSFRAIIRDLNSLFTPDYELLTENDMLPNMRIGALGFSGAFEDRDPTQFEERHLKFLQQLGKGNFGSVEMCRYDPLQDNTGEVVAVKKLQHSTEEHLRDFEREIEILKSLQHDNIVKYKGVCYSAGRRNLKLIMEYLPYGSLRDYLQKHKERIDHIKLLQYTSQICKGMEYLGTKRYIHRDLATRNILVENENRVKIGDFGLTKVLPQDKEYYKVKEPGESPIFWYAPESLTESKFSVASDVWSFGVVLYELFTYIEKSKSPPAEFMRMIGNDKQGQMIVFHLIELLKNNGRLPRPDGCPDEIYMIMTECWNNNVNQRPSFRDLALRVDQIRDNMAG
IKKε, sequence (Q14164 whole entry): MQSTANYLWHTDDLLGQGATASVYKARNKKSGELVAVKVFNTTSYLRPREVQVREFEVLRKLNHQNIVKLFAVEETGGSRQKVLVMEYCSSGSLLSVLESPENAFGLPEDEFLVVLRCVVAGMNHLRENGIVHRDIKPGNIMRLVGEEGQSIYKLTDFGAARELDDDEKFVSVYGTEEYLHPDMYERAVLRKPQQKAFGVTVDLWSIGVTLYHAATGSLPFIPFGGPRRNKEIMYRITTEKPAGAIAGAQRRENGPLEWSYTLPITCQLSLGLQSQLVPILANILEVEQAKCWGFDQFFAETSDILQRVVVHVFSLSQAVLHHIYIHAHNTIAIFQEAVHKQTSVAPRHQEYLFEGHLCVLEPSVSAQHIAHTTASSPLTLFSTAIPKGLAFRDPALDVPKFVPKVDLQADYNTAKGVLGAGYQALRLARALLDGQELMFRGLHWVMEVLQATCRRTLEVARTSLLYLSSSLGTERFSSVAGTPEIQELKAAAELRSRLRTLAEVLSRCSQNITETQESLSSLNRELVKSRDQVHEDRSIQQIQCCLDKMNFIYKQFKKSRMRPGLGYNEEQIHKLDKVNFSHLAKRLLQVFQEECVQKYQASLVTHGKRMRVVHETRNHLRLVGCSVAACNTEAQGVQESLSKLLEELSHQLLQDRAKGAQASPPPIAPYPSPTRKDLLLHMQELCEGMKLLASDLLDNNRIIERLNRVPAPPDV

SMILES	IC50 (IKKε) [µM]	IC50 (hJAK2) [µM]	IC50 (TBK1) [µM]
COc1cccc(Nc2ncnc(-c3ccc(OC4CCOCC4)c(C#N)c3)n2)c1 [Example 78, 5-(4-((3-methoxyphenyl)amino)-1,3,5-triazin-2-yl)-2-((tetrahydro-2H-pyran-4-yl)oxy)benzonitrile]	0.017	> 1	0.006
N#Cc1cc(-c2ncnc(Nc3ccccc3)n2)ccc1OC1CCOCC1 [Example 79, 5-(4-(phenylamino)-1,3,5-triazin-2-yl)-2-((tetrahydro-2H-pyran-4-yl)oxy)benzonitrile]	0.019	> 1	0.008
N#Cc1cc(-c2ncnc(Nc3ccc(N4CCOCC4)cc3)n2)ccc1O[C@@H]1CCNC1 [Example 80]	0.037	0.389	0.019
N#Cc1cc(-c2ncnc(Nc3cccc(N4CCOCC4)c3)n2)ccc1O[C@@H]1CCNC1 [Example 82, (R)-5-(4-((3-morpholinophenyl)amino)-1,3,5-triazin-2-yl)-2-(pyrrolidin-3-yloxy)benzonitrile]	0.053	0.641	0.094
CC(C)NC(=O)c1ccc(Nc2ncnc(-c3ccc(O[C@@H]4CCN(C(=O)CO)C4)c(C#N)c3)n2)cc1 [Example 83, (R)-4-((4-(3-cyano-4-((1-(2-hydroxyacetyl)pyrrolidin-3-yl)oxy)phenyl)-1,3,5-triazin-2-yl)amino)-N-isopropylbenzamide]	0.014	0.604	0.008
CC(C)NC(=O)c1ccc(Nc2ncnc(-c3ccc(O[C@@H]4CCNC4)c(C#N)c3)n2)cc1 [Example 84, (R)-4-((4-(3-cyano-4-(pyrrolidin-3-yloxy)phenyl)-1,3,5-triazin-2-yl)amino)-N-isopropylbenzamide]	0.166	0.805	0.072
CN1CCN(c2ccc(Nc3ncnc(-c4ccc(O[C@@H]5CCN(C(=O)CO)C5)c(C#N)c4)n3)cc2)CC1 [Example 86, (R)-2-((1-(2-hydroxyacetyl)pyrrolidin-3-yl)oxy)-5-(4-((4-(4-methylpiperazin-1-yl)phenyl)amino)-1,3,5-triazin-2-yl)benzonitrile]	0.004	0.459	0.008
N#Cc1cc(-c2ncnc(Nc3ccc(N4CCN(C5COC5)CC4)cc3)n2)ccc1F [Example 87, 2-Fluoro-5-(4-((4-(4-(oxetan-3-yl)piperazin-1-yl)phenyl)amino)-1,3,5-triazin-2-yl)benzonitrile]	> 1	> 1	0.853
N#Cc1cc(-c2ncnc(Nc3ccc(N4CCN(C5COC5)CC4)cc3)n2)ccc1O[C@@H]1CCN(C(=O)CCO)C1 [Example 89, (R)-2-((1-(3-hydroxypropanoyl)pyrrolidin-3-yl)oxy)-5-(4-((4-(4-(oxetan-3-yl)piperazin-1-yl)phenyl)amino)-1,3,5-triazin-2-yl)benzonitrile]	0.052	0.359	0.016
N#CCC(=O)N1CC[C@@H](Oc2ccc(-c3ncnc(Nc4ccc(N5CCN(C6COC6)CC5)cc4)n3)cc2C#N)C1 [Example 90, (R)-2-((1-(2-cyanoacetyl)pyrrolidin-3-yl)oxy)-5-(4-((4-(4-(oxetan-3-yl)piperazin-1-yl)phenyl)amino)-1,3,5-triazin-2-yl)benzonitrile]	0.037	0.292	0.007
N#Cc1cc(-c2ncnc(Nc3ccc(N4CCN(C5COC5)CC4)cc3)n2)ccc1O[C@@H]1CCN(C(=O)C2COC2)C1 [Example 92, (R)-5-(4-((4-(4-(oxetan-3-yl)piperazin-1-yl)phenyl)amino)-1,3,5-triazin-2-yl)-2-((1-(oxetane-3-carbonyl)pyrrolidin-3-yl)oxy)benzonitrile]	0.197	> 1	0.045
N#Cc1cc(-c2ncnc(Nc3ccc(N4CCN(C5COC5)CC4)cc3)n2)ccc1O[C@@H]1CCNC1 [Example 93, (R)-5-(4-((4-(4-(oxetan-3-yl)piperazin-1-yl)phenyl)amino)-1,3,5-triazin-2-yl)-2-(pyrrolidin-3-yloxy)benzonitrile]	0.12	0.961	0.03
N#Cc1cc(-c2ncnc(Nc3ccc(N4CCN(C5COC5)CC4)cc3)n2)ccc1O[C@@H]1CCN(C(=O)C2(O)CC2)C1 [Example 94, (R)-2-((1-(1-hydroxycyclopropanecarbonyl)pyrrolidin-3-yl)oxy)-5-(4-((4-(4-(oxetan-3-yl)piperazin-1-yl)phenyl)amino)-1,3,5-triazin-2-yl)benzonitrile]	0.367	> 1	0.173
N#Cc1cc(-c2ncnc(Nc3ccc(N4CCN(C5COC5)CC4)cc3)n2)ccc1O[C@@H]1CCN(C=O)C1 [Example 95, (R)-2-((1-formylpyrrolidin-3-yl)oxy)-5-(4-((4-(4-(oxetan-3-yl)piperazin-1-yl)phenyl)amino)-1,3,5-triazin-2-yl)benzonitrile]	0.021	0.377	0.007
N#Cc1cc(-c2ncnc(Nc3ccc(N4CCN(C5COC5)CC4)cc3)n2)ccc1O[C@@H]1CCN(C(=O)C(F)F)C1 [Example 96, (R)-2-((1-(2,2-difluoroacetyl)pyrrolidin-3-yl)oxy)-5-(4-((4-(4-(oxetan-3-yl)piperazin-1-yl)phenyl)amino)-1,3,5-triazin-2-yl)benzonitrile]	0.091	0.56	0.021
N#Cc1cc(-c2ncnc(Nc3ccc(N4CCN(C5COC5)CC4)cc3)n2)ccc1OC1CCCN(C(=O)CO)CC1 (stereo not drawn) [Example 97, 2-((1-(2-hydroxyacetyl)azepan-4-yl)oxy)-5-(4-((4-(4-(oxetan-3-yl)piperazin-1-yl)phenyl)amino)-1,3,5-triazin-2-yl)benzonitrile]	0.022	0.241	0.011
N#Cc1cc(-c2ncnc(Nc3ccc(N4CCN(C5COC5)CC4)cc3)n2)ccc1OC1CN(C(=O)CO)CC1(F)F (stereo not drawn) [Example 98, 2-((4,4-difluoro-1-(2-hydroxyacetyl)pyrrolidin-3-yl)oxy)-5-(4-((4-(4-(oxetan-3-yl)piperazin-1-yl)phenyl)amino)-1,3,5-triazin-2-yl)benzonitrile]	0.014	0.119	0.005
C[C@@H]1C[C@@H](Oc2ccc(-c3ncnc(Nc4ccc(N5CCN(C6COC6)CC5)cc4)n3)cc2C#N)CN1C(=O)CO [Example 99, 2-(((3R,5R)-1-(2-hydroxyacetyl)-5-methylpyrrolidin-3-yl)oxy)-5-(4-((4-(4-(oxetan-3-yl)piperazin-1-yl)phenyl)amino)-1,3,5-triazin-2-yl)benzonitrile]	0.193	0.44	0.077
C[C@H]1C[C@@H](Oc2ccc(-c3ncnc(Nc4ccc(N5CCN(C6COC6)CC5)cc4)n3)cc2C#N)CN1C(=O)CO [Example 100, 2-(((3R,5S)-1-(2-hydroxyacetyl)-5-methylpyrrolidin-3-yl)oxy)-5-(4-((4-(4-(oxetan-3-yl)piperazin-1-yl)phenyl)amino)-1,3,5-triazin-2-yl)benzonitrile]	0.249	0.525	0.121
N#Cc1cc(-c2ncnc(Nc3ccc(N4CCN(C5COC5)CC4)cc3)n2)ccc1O[C@H]1C[C@@H]2C[C@H]1N(C(=O)CO)C2 [Example 102, 2-(((1R,4S,6S)-2-(2-hydroxyacetyl)-2-azabicyclo[2.2.1]heptan-6-yl)oxy)-5-(4-((4-(4-(oxetan-3-yl)piperazin-1-yl)phenyl)amino)-1,3,5-triazin-2-yl)benzonitrile]	0.024	0.38	0.011
N#Cc1cc(-c2ncnc(Nc3ccc(N4CCOCC4)cc3)n2)ccc1O[C@@H]1CCN(C(=O)CO)C1 [Example 103, (R)-2-((1-(2-hydroxyacetyl)pyrrolidin-3-yl)oxy)-5-(4-((4-morpholinophenyl)amino)-1,3,5-triazin-2-yl)benzonitrile]	0.01	0.26	0.006
COc1ccc(-c2ncnc(Nc3ccc(N4CCN(C5COC5)CC4)cc3)n2)cc1C#N [Example 104, 2-methoxy-5-(4-((4-(4-(oxetan-3-yl)piperazin-1-yl)phenyl)amino)-1,3,5-triazin-2-yl)benzonitrile]	0.215	0.328	0.042
COc1cc(C#N)cc(-c2ncnc(Nc3ccc(N4CCN(C5COC5)CC4)cc3)n2)c1 [Example 105, 3-methoxy-5-(4-((4-(4-(oxetan-3-yl)piperazin-1-yl)phenyl)amino)-1,3,5-triazin-2-yl)benzonitrile]	> 1	0.212	0.079
N#Cc1cc(-c2ncnc(Nc3ccc(Cn4ccnc4)cc3)n2)ccc1OC1CCOCC1 [Example 106, 5-(4-((4-((1H-imidazol-1-yl)methyl)phenyl)amino)-1,3,5-triazin-2-yl)-2-((tetrahydro-2H-pyran-4-yl)oxy)benzonitrile]	0.004	> 1	0.005
CC1(O)CCN(c2ccc(Nc3ncnc(-c4ccc(OC5CCOCC5)c(C#N)c4)n3)cc2)C1 (stereo not drawn) [Example 108, 5-(4-((4-(3-hydroxy-3-methylpyrrolidin-1-yl)phenyl)amino)-1,3,5-triazin-2-yl)-2-((tetrahydro-2H-pyran-4-yl)oxy)benzonitrile]	0.006	> 1	0.003
Cc1cc(N2CCOCC2)ccc1Nc1ncnc(-c2ccc(OC3CCOCC3)c(C#N)c2)n1 [Example 109, 5-(4-((2-methyl-4-morpholinophenyl)amino)-1,3,5-triazin-2-yl)-2-((tetrahydro-2H-pyran-4-yl)oxy)benzonitrile]	0.161	> 1	0.076
N#Cc1cc(-c2ncnc(Nc3ccc(N4CCN(C5COC5)CC4)cc3)n2)ccc1O[C@H]1CCN(C2CCOC2)C[C@H]1F (stereo partly drawn) [Example 110, 2-(((3R,4S)-3-fluoro-1-(tetrahydrofuran-3-yl)piperidin-4-yl)oxy)-5-(4-((4-(4-(oxetan-3-yl)piperazin-1-yl)phenyl)amino)-1,3,5-triazin-2-yl)benzonitrile]	0.33	0.74	0.243
